From ChEMBL document CHEMBL1821595, “Covalent stabilization of a small molecule-RNA complex” (Bioorg Med Chem Lett, 2011) come the findings set out here.

Assay type in all cases: nucleic-acid assay
Assay [1] deals with Nucleic Acid. The assay is described as follows: Binding affinity to thiol-bearing RNA1 aptamer assessed as RNA1-compound conjugate formation at 1 uM by MALDI-MS 123 analysis.
Assay [2] deals with Nucleic Acid. Briefly: Binding affinity to thiol-bearing RNA2 aptamer assessed as RNA2-compound conjugate formation at 1 uM by MALDI-MS 123 analysis.
Assay [3] deals with Nucleic Acid. The assay is described as follows: Binding affinity to thiol-bearing RNA2 aptamer assessed as RNA2-compound conjugate formation at 1 uM after 1 hr by MALDI-MS analysis in presence of complementary DNA.
Assay [4] has as its system Nucleic Acid. Briefly: Binding affinity to thiol-bearing RNA1 aptamer assessed as RNA1-compound conjugate formation at 1 uM after 1 hr by MALDI-MS analysis in presence of complementary DNA.
Assay [5] relates to Nucleic Acid. The assay is described as follows: Binding affinity to thiol-bearing RNA1 aptamer assessed as RNA1-compound conjugate formation at 1 uM after 1 hr by MALDI-MS analysis in presence of non-complementary DNA and 1 uM iodoacetamide.
Assay [6] has as its system Nucleic Acid. Briefly: Binding affinity to thiol-bearing RNA1 aptamer assessed as RNA1-compound conjugate formation at 1 uM after 1 hr by MALDI-MS analysis in presence of non-complementary DNA.
In assay [7] the test system is Nucleic Acid. Briefly: Binding affinity to RNA1-DNA hybrid assessed as inhibition of RNA1/DNA hybrid-compound conjugate formation at 1 uM after 1 hr by MALDI-MS analysis.
Assay [8] concerns Nucleic Acid. The assay is described as follows: Covalent binding affinity to thiol-bearing RNA1 aptamer assessed as rate constant at 1 uM by MALDI-MS analysis.

Active and inactive are the calls of the source. No cut-off for these calls is given here.

As for `CC(C)[C@H](NC(=O)CBr)C(=O)NCc1ccc(Nc2cc(-c3ccccc3)nc3c(C(=O)N[C@@H](CCCNC(=N)N)C(N)=O)cccc23)cc1`, the outcome in the assay on Nucleic Acid [1] and in the assay on Nucleic Acid [2] was Active. The outcome with Nucleic Acid [3] and in the assay with Nucleic Acid [4] was inactive.

For the compound `N=C(N)NCCC[C@H](NC(=O)c1cccc2c(Nc3ccc(CNC(=O)CBr)cc3)cc(-c3ccccc3)nc12)C(N)=O`, the Activity in the assay with Nucleic Acid [1] and in the assay on Nucleic Acid [5] was 90% throughout. The result with Nucleic Acid [6] and in the assay with Nucleic Acid [7] was inactive. Also, in the assay on Nucleic Acid [2], the outcome was Active. The K in the assay on Nucleic Acid [8] amounted to 5.5 ×10⁻² /min.

In the case of `CC(C)[C@H](NC(=O)[C@H](CO)NC(=O)CBr)C(=O)NCc1ccc(Nc2cc(-c3ccccc3)nc3c(C(=O)N[C@@H](CCCNC(=N)N)C(N)=O)cccc23)cc1`, the outcome in the assay with Nucleic Acid [1] and in the assay with Nucleic Acid [2] was Active. Besides, the outcome in the assay on Nucleic Acid [3] and in the assay with Nucleic Acid [4] was inactive.
